Data: paper PMC6538953, “Metal Ions Activate the Human Taste Receptor TAS2R7” (Chemical Senses, 2019)
Positions count from the first letter of the chain named. Read-outs that look alike come from different tables or passages of the source.

How the values were obtained:
[1] = system: CaSR; conditions: ref Spurney et al. 1999; cited from earlier work
[2] = system: mock-transfected HEK293 cells (Gα16-gust44 only); assay: Calcium mobilization assay, mock-transfected cells (Gα16-gust44 only); assay type: cell-based, human; conditions: any concentration tested (cromolyn 10 mM)
Method: (§1) Human embryonic kidney 293 (PEAKrapid, ATCC # CRL-2828) cells were cultured in Opti-MEM medium with 4% fetal bovine serum. One day before transfection, cells were seeded on a 96-well plate at a density of 25 000 per well. Cells were then transiently transfected with a TAS2R construct (0.1 µg/well) along with a G protein Gα16-gust44 (0.1 µg/well) construct by Lipofectamine 2000 (0.5 µl/well). For controls, only Gα16-gust44 was used (mock transfection). Twenty-four hours after transfection, cells were washed with HBSS including 10 mM HEPES and loaded with Fluo-4 in the dark for 1 h. After incubation, cells were washed 2 times with HBSS (including 10 mM HEPES), incubated in the dark for another 30 min, and then washed with assay solution once more before running the assay using a FlexStation III reader. Relative fluorescence units (excitation at 494 nm, emission at 516 nm, and auto cutoff at 515 nm) were read every 2 s for 2 min. Calcium mobilization traces were recorded.
Calcium mobilization traces were raw data obtained from single wells. Changes in fluorescence (ΔF) were calculated as the peak fluorescence minus baseline fluorescence ([Lei et al. 2015]). The calcium mobilization was quantified as the percentage of change (ΔF) relative to baseline (F). […] Calcium mobilization traces and bar graphs along with dose-dependent plots were all generated by GraphPad Prism 7. […]

[3] = molecular target: T1, human TAS2R7 (Homo sapiens, UniProt Q9NYW3); assay: Calcium mobilization assay, HEK293 cells transfected with TAS2R7 and Gα16-gust44; assay type: cell-based
T1 construct: first 45 residues of rat somatostatin receptor 3 (signal peptide) (N); expressed in transfected cells; host or cells: HEK293 (PEAKrapid, ATCC CRL-2828)
T1 sequence (Q9NYW3 1-318): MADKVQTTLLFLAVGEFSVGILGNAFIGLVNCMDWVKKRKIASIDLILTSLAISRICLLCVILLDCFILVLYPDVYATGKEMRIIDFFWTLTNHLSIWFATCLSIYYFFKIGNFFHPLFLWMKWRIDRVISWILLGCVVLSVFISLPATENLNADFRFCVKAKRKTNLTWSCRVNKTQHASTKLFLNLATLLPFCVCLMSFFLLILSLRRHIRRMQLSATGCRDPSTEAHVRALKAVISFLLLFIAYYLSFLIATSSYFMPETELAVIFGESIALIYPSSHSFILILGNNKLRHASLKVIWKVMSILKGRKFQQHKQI
From the text: (§2) The coding sequences of human TAS2Rs were amplified from human genomic DNA, then subcloned into pcDNA3.1(+) vector, with the herpes simplex virus glycoprotein D epitope (HSV) at the C-terminal and a signal peptide consisting of the first 45 amino acid residues of the rat somatostatin receptor 3 at the N-terminal, essentially as described previously ([Bufe et al. 2002]). Point mutations in human TAS2R7 (NCBI Reference Sequence: NP_076408.1) were constructed by site-directed mutagenesis. All the constructs were confirmed by Sanger sequencing.
All tested compounds were purchased from Sigma–Aldrich, with the exception of diphenidol hydrochloride (Reagent World) and L-praziquantel (manufactured by Shaoxing Pharmaceutical Co. Ltd.). All the metal ions were dissolved in the assay solution (130 mM NaCl, 5 mM KCl, 2 mM CaCl2, and 10 mM glucose; pH 7.4) unless specified otherwise, and the bitter compounds (diphenidol, quinine, and chlorphenamine) were dissolved first in dimethyl sulfoxide (DMSO) as stock solution and then diluted with the assay solution; the final DMSO concentration was below 0.5%, with the exception of cromolyn, which is dissolved in the assay solution directly. For our initial screening (Table 1), Hanks’ balanced salt solution (HBSS, ThermoFisher, catalog no. 14025134) supplemented with 10 mM hydroxyethyl piperazineethanesulfonic acid (HEPES) were used as the assay buffer.
as §1
(§3) Calcium mobilization traces were raw data obtained from single wells. Changes in fluorescence (ΔF) were calculated as the peak fluorescence minus baseline fluorescence ([Lei et al. 2015]). The calcium mobilization was quantified as the percentage of change (ΔF) relative to baseline (F). […] Calcium mobilization traces and bar graphs along with dose-dependent plots were all generated by GraphPad Prism 7. Analysis of variance with Dunnett’s multiple comparisons test was used for statistical analysis. *P < 0.05.
To determine whether a TAS2R responds to metal ions, we expressed all 25 human bitter receptors individually in HEK293 cells (PEAKrapid) by transient transfection of a TAS2R along with a coupling chimeric G protein, Gα16-gust44. All TAS2Rs were cloned from human genomic DNA. Activation of human TAS2Rs was monitored by the calcium mobilization assay ([Lei et al. 2015]). We tested these receptors individually for their responses toward metal ions: ZnSO4 (20 mM), CuSO4 (20 mM), and MgCl2 (20 mM) (Table 1, Figure 1A). […] To determine the breadth of tuning of TAS2R7 toward metal ions, we also tested MnCl2 (20 mM), Al2(SO4)3 ([…]), and CaCl2 (20 mM) (Figure 1B).

[4] = parameters: method as in Lau et al. 1991; conditions: administered systemically, animal studies; ref Lau et al. 1991; cited from earlier work
[5] = molecular target: T2, human TAS2R7 E264^7.32K mutant (Homo sapiens, UniProt Q9NYW3, E264K); assay: Calcium mobilization assay, TAS2R7 mutant E264K; assay type: cell-based; conditions: 20 mM metal ions except 0.16 mM Al2(SO4)3; cromolyn 10 mM; Figure 6B
T2 construct: signal peptide: first 45 amino acid residues of rat somatostatin receptor 3 (N); expressed in transfected cells; host or cells: HEK293 PEAKrapid (ATCC CRL-2828), transient, co-transfected with Gα16-gust44
T2 sequence (Q9NYW3 1-318 E264K): T1 sequence (Q9NYW3 1-318) with E264K
From the text: as §2, §1, §3
To assess the importance of these residues, we performed site-directed mutagenesis. We mutated the negatively charged residues E16^1.42, E264^7.32, and E271^7.39 to Q (glutamine), K (lysine), or L (leucine). The facing H94^3.37 was mutated to F (phenylalanine). HEK293 cells that expressed mutant receptors along with Gα16-gust44 were examined for their responses to metal ions (20 mM for all except 0.16 mM Al2(SO4)3) and cromolyn (10 mM, as a positive control) to assess receptor’s function. To determine the expression level of each receptor, we stained the wild-type or mutant receptor-transfected cells using an anti-HSV antibody since all the receptors are tagged with HSV at c-terminal. […]

[6] = molecular target: T3, human TAS2R7 E264^7.32L mutant (Homo sapiens, UniProt Q9NYW3, E264L); assay: Calcium mobilization assay, TAS2R7 mutant E264L; assay type: cell-based; conditions: 20 mM metal ions except 0.16 mM Al2(SO4)3; cromolyn 10 mM; Figure 6B
T3 construct: signal peptide: first 45 amino acid residues of rat somatostatin receptor 3 (N); expressed in transfected cells; host or cells: HEK293 PEAKrapid (ATCC CRL-2828), transient, co-transfected with Gα16-gust44
T3 sequence (Q9NYW3 1-318 E264L): T1 sequence (Q9NYW3 1-318) with E264L
From the text: as §2, §1
as §3, with “0.05. […]” for “0.05.”

- Activation of TAS2R7 by metal ions ([3]; 20 mM, Figure 1A,B): activated the receptor
- Dose dependence of TAS2R7 response ([3]; Figure 2A,C): dose-dependent responses
- EC50 ([3]; assay solution containing calcium, Figure 3A, read-out: EC50, TAS2R7, in the presence of calcium): 29 µM
- EC50 ([3]; assay solution containing no calcium, Figure 3A, read-out: EC50, TAS2R7, in the absence of calcium): 55 µM
- EC50 ([3]; assay solution with 2 mM CaCl2, Figure 2, read-out: EC50, TAS2R7 concentration-response): 39 ± 15 µM
- Response of E264K mutant receptor [5]: specific loss of responses
- Response of E264L mutant receptor [6]: insensitive
SMILES: O=S(=O)([O-])[O-].O=S(=O)([O-])[O-].O=S(=O)([O-])[O-].[Al+3].[Al+3] [Al2(SO4)3, aluminum sulfate]
- Activity at CaSR [1]: weak agonist
- Response of mock-transfected cells [2]: no responses
- Concentration reached in serum [4]: 50 µM
